# Measurements: publication PMC13462928 (Nature Communications, 2026)
# Where two headings read alike, the source gives them in different places.
# Experiments:
# [1] = molecular target: NUDT5 and the respective E3 ligase (Homo sapiens, UniProt P40337+Q9UKK9); test: NanoBRET ternary complex formation assay NUDT5 and the respective E3 ligase (VHL or CRBN) in HEK293 cells; format: cell-based; details: for Ternary complex formation below 1 µM (4 h): HEK293, 4 h; for Ternary complex formation below 1 µM (20 h): HEK293, 20 h
# Description: NanoBRET ternary complex assays were performed following the manufacturer’s instructions (Promega). […] After 4 h or 20 h of incubation, a mix of substrate in assay medium was added to each well. Donor and acceptor signals were measured in a PHERAstar FSX or FS plate reader and analyzed by GraphPad Prism (v.9 or v.10). The acceptor/donor ratio was calculated, the no ligand background signal was subtracted, and multiplied by 1000 to yield mBRET units. Data were then normalized to DMSO.
# [2] = molecular target: NUDT5 (Homo sapiens, UniProt Q9UKK9); test: NanoBRET NUDT5 target engagement (TE) assay in HEK293 cells; format: cell-based; parameters: expressed in transfected cells; host or cells: HEK293
# [3] = molecular target: T1, NUDT5 (Homo sapiens, UniProt Q96SW2+Q9UKK9); test: Western blot NUDT5 degradation in HAP1 cells; format: cell-based; parameters: endogenous in cells; host or cells: HAP1; details: HAP1 cells, Western blot, Fig. 3B
# Description: (§1) Pellets were lysed on ice using RIPA buffer (25 mM Tris (pH 7.5), 150 mM NaCl, 1% Igepal, 1% SDS, 0.1% SDC, 1x protease inhibitor (Roche, cOmplete mini, 11836170001), 1x phosphatase (Thermo Scientific, Halt, 78429), 0.1% benzonase (Merck, E1014-5KU)), incubated for 15 min and then centrifuged for 20 min at 4 °C at maximum speed in a table-top centrifuge. […] Membranes were blocked with 6% milk in PBS-T for 1 h at RT, washed, and then incubated with primary antibody diluted in PBS-T supplemented with 0.1% NaN3 overnight at 4 °C. Membranes were incubated with fluorophore-conjugated secondary antibodies, Alexa Fluor 680 anti-rabbit IgG (Life Technologies, A21109), Alexa Fluor 750 anti-mouse IgG (Life Technologies, A21037) diluted 1:5000 in 2% milk PBS-T, washed and imaged with an Odyssey imager (Licor).
# [4] = tested on: HAP1 cells; test: Titration of NUDT5 degraders and controls against fixed 6-TG (2 µg/mL) in HAP1 cells, cell viability; format: cell-based, human; details: HAP1, 2 µg/mL 6-TG, 72 h
# Description: Cells were counted and adjusted to a density of 25,000 cells/mL in culture medium. […] Plates were sealed with breathable film and incubated at 37 °C with 5% CO₂ for 72 hours. Cell viability was assessed using the CellTiter-Glo Luminescent Cell Viability Assay, following the manufacturer’s protocol (Promega). Luminescence was measured using a PHERAstar FS or FSX plate reader, and data were analyzed using GraphPad Prism software (versions 9 or 10). Results were normalized to the vehicle control (DMSO).
# [5] = tested on: HAP1 cell lines; test: TH1760/6-TG cell viability assay in HAP1 cell lines; format: cell-based, human; details: 72 h
# Description: After 72 h incubation, cell viability was measured using the CellTiter-Glo assay (Promega). Signals were normalized to the control condition.
# [6] = molecular target: T1, NUDT5; test: Western blot NUDT5 degradation in HEK293 cells; format: cell-based; details: 20 h, Western blot
# Description: as §1
# [7] = read-out: EC50 (µM), TE 4h, HEK293, 4 h, Supplementary Table 1
# [8] = read-out: EC50 (nM) TE (4h), HEK293, 4 h, Supplementary Table 3
smiles,measurement,setting,value
Cn1c(=O)c2c(nc(N3CCN(C(=O)CCCCCCCNc4cccc5c4C(=O)N(C4CCC(=O)NC4=O)C5=O)CC3)n2Cc2nnc(-c3ccc(Cl)c(Cl)c3)o2)n(C)c1=O (centres unmarked) [ASM134],Ternary complex formation below 1 µM (4 h),[1]; Supplementary Table 2,Yes
same,Ternary complex formation below 1 µM (20 h),[1]; Supplementary Table 2,Yes
Cn1c(=O)c2c(nc(N3CCN(C(=O)CCOCCOCCNc4cccc5c4C(=O)N(C4CCC(=O)NC4=O)C5=O)CC3)n2Cc2nnc(-c3ccc(Cl)c(Cl)c3)o2)n(C)c1=O (centres unmarked) [ASM68],Ternary complex formation below 1 µM (20 h),[1]; Supplementary Table 2,Yes
CN1C(=O)CCC(N2C(=O)c3ccc(N4CCN(CC5CCN(C(=O)N6CCN(c7nc8c(c(=O)n(C)c(=O)n8C)n7Cc7nnc(-c8ccc(Cl)c(Cl)c8)o7)CC6)CC5)CC4)cc3C2=O)C1=O (centres unmarked) [dNUDT5nc],EC50,"[2]; HEK293 cells, Supplementary Fig. 6B, read-out: NUDT5 NanoBRET target engagement EC50",0.028 µM
same,NUDT5 engagement in live cells,[2]; NanoBRET,engaged their cognate target NUDT5 in live cells
same,NUDT5 degradation,[3],preventing NUDT5 degradation
same,rescue of 6-TG-induced toxicity,[4],failed to rescue cell viability
Cc1ncsc1-c1ccc(CNC(=O)C2CC(O)CN2C(=O)C(NC(=O)COCCOCCCCCCC(=O)N2CCC(n3nc(-c4ccc(Oc5ccccc5)cc4)c4c(N)ncnc43)CC2)C(C)(C)C)cc1 (centres unmarked) [ASM74],EC50,[2]; [7],> 10 µM
same,Ternary complex formation below 1 µM (20 h),[1]; Supplementary Table 1,No
Cn1c(=O)c2c(nc(N3CCN(C(=O)CCCCNc4cccc5c4C(=O)N(C4CCC(=O)NC4=O)C5=O)CC3)n2Cc2nnc(-c3ccc(Cl)c(Cl)c3)o2)n(C)c1=O (centres unmarked) [ASM124],Ternary complex formation below 1 µM (4 h),[1]; Supplementary Table 2,Yes
same,Ternary complex formation below 1 µM (20 h),[1]; Supplementary Table 2,Yes
Cn1c(=O)c2c(nc(N3CCN(CC4CCN(c5ccc6c(c5)C(=O)N(C5CCC(=O)NC5=O)C6=O)C4)CC3)n2Cc2nnc(-c3ccc(Cl)c(Cl)c3)o2)n(C)c1=O (centres unmarked) [ASM105],EC50,[2]; [8],0.103 µM
same,Ternary complex formation below 1 µM (20 h),[1]; Supplementary Table 3,No
O=C(c1ccc2[nH]ccc2c1)N1CCN(S(=O)(=O)c2ccc3[nH]c(=O)oc3c2)CC1 [TH1760],sensitization of cells towards 6-TG,"[5]; HAP1 WT, 6-TG 1 µM fixed",sensitized HAP1 WT cells towards 6-TG in a dose-dependent manner
same,effect on cell viability without 6-TG,"[5]; HAP1 cell lines, up to 50 µM",does not affect HAP1 cell viability
"Nc1ncnc2c1c(-c1ccc(Oc3ccccc3)cc1)nn2[C@@H]1CCCN(C(=O)c2cn(CCOCCOCCOCCNc3cccc4c3C(=O)N(C3CCC(=O)NC3=O)C4=O)nn2)C1 (some centres unmarked) [Compound P13I1, reference compound]",EC50,[2]; [7],8.9 µM
same,Ternary complex formation below 1 µM (20 h),[1]; Supplementary Table 1,No
"Nc1ncnc2c1c(-c1ccc(Oc3ccccc3)cc1)nn2C1CCN(CCOCCOCC(=O)Nc2ccc3c(c2)C(=O)N(C2CCC(=O)NC2=O)C3=O)CC1 (centres unmarked) [MT-802, reference compound]",EC50,[2]; [7],1.3 µM
same,Ternary complex formation below 1 µM (20 h),[1]; Supplementary Table 1,No
Cc1ncsc1-c1ccc(CNC(=O)C2CC(O)CN2C(=O)C(NC(=O)COCCOCCCCCCC(=O)N2CCN(c3nc4c(c(=O)n(C)c(=O)n4C)n3Cc3nnc(-c4ccc(Cl)c(Cl)c4)o3)CC2)C(C)(C)C)cc1 (centres unmarked) [ASM076],EC50,"[2]; read-out: EC50 (nM) TE (4h), HEK293, 4 h, Supplementary Table 2",2 µM
same,Ternary complex formation below 1 µM (20 h),[1]; Supplementary Table 2,No
Cn1c(=O)c2c(nc(N3CCN(C(=O)CCCNc4cccc5c4C(=O)N(C4CCC(=O)NC4=O)C5=O)CC3)n2Cc2nnc(-c3ccc(Cl)c(Cl)c3)o2)n(C)c1=O (centres unmarked) [ASM111],Ternary complex formation below 1 µM (20 h),[1]; Supplementary Table 2,Yes
same,effect on NUDT5 protein levels,[6],no significant effects on NUDT5 protein levels
Cn1c(=O)c2c(nc(N3CCN(C(=O)CCCCCCCCOc4cccc5c4C(=O)N(C4CCC(=O)NC4=O)C5=O)CC3)n2Cc2nnc(-c3ccc(Cl)c(Cl)c3)o2)n(C)c1=O (centres unmarked) [ASM135],Ternary complex formation below 1 µM (4 h),[1]; Supplementary Table 2,Yes
same,Ternary complex formation below 1 µM (20 h),[1]; Supplementary Table 2,Yes
Cn1c(=O)c2c(nc(N3CCN(C(=O)CCOCCNc4cccc5c4C(=O)N(C4CCC(=O)NC4=O)C5=O)CC3)n2Cc2nnc(-c3ccc(Cl)c(Cl)c3)o2)n(C)c1=O (centres unmarked) [ASM137],Ternary complex formation below 1 µM (4 h),[1]; Supplementary Table 2,Yes
same,Ternary complex formation below 1 µM (20 h),[1]; Supplementary Table 2,Yes
same,effect on NUDT5 protein levels,[6],no significant effects on NUDT5 protein levels
Cn1c(=O)c2c(nc(N3CCN(CCC4CCN(c5ccc6c(c5)C(=O)N(C5CCC(=O)NC5=O)C6=O)CC4)CC3)n2Cc2nnc(-c3ccc(Cl)c(Cl)c3)o2)n(C)c1=O (centres unmarked) [ASM102],EC50,[2]; [8],0.102 µM
same,Ternary complex formation below 1 µM (20 h),[1]; Supplementary Table 3,Yes
Cn1c(=O)c2c(nc(N3CCN(C(=O)CCCCCCNc4cccc5c4C(=O)N(C4CCC(=O)NC4=O)C5=O)CC3)n2Cc2nnc(-c3ccc(Cl)c(Cl)c3)o2)n(C)c1=O (centres unmarked) [ASM84],Ternary complex formation below 1 µM (20 h),[1]; Supplementary Table 2,Yes
Cn1c(=O)c2c(nc(N3CCN(CC4CCN(c5ccc6c(c5)C(=O)N(C5CCC(=O)NC5=O)C6=O)CC4)CC3)n2Cc2nnc(-c3ccc(Cl)c(Cl)c3)o2)n(C)c1=O (centres unmarked) [ASM70],EC50,[2]; [8],0.042 µM
same,Ternary complex formation below 1 µM (20 h),[1]; Supplementary Table 3,Yes
Cn1c(=O)c2c(nc(N3CCN(C(=O)CCCCCNc4cccc5c4C(=O)N(C4CCC(=O)NC4=O)C5=O)CC3)n2Cc2nnc(-c3ccc(Cl)c(Cl)c3)o2)n(C)c1=O (centres unmarked) [ASM122],Ternary complex formation below 1 µM (4 h),[1]; Supplementary Table 2,Yes
same,Ternary complex formation below 1 µM (20 h),[1]; Supplementary Table 2,Yes
same,effect on NUDT5 protein levels,[6],no significant effects on NUDT5 protein levels
Cn1c(=O)c2c(nc(N3CCN(CC4CCN(c5cccc6c5C(=O)N(C5CCC(=O)NC5=O)C6=O)CC4)CC3)n2Cc2nnc(-c3ccc(Cl)c(Cl)c3)o2)n(C)c1=O (centres unmarked) [ASM110],EC50,[2]; [8],0.061 µM
same,Ternary complex formation below 1 µM (20 h),[1]; Supplementary Table 3,No
Cc1ncsc1-c1ccc(CNC(=O)C2CC(O)CN2C(=O)C(NC(=O)CCCCCOCCCCCOCCCCCCN2CCCC(n3nc(-c4ccc(Oc5ccccc5)cc4)c4c(N)ncnc43)C2)C(C)(C)C)cc1 (centres unmarked) [ASM32],EC50,[2]; [7],> 10 µM
same,Ternary complex formation below 1 µM (20 h),[1]; Supplementary Table 1,No
Cn1c(=O)c2c(nc(N3CCN(C(=O)CCCCCCOc4cccc5c4C(=O)N(C4CCC(=O)NC4=O)C5=O)CC3)n2Cc2nnc(-c3ccc(Cl)c(Cl)c3)o2)n(C)c1=O (centres unmarked) [ASM136],Ternary complex formation below 1 µM (4 h),[1]; Supplementary Table 2,No
same,Ternary complex formation below 1 µM (20 h),[1]; Supplementary Table 2,No
Cn1c(=O)c2c(nc(N3CCN(C(=O)CCCCNC(=O)COc4cccc5c4C(=O)N(C4CCC(=O)NC4=O)C5=O)CC3)n2Cc2nnc(-c3ccc(Cl)c(Cl)c3)o2)n(C)c1=O (centres unmarked) [ASM57],Ternary complex formation below 1 µM (20 h),[1]; Supplementary Table 2,No
Cc1ncsc1-c1ccc(CNC(=O)C2CC(O)CN2C(=O)C(NC(=O)CCOCCOCCOCCC(=O)N2CCN(c3nc4c(c(=O)n(C)c(=O)n4C)n3Cc3nnc(-c4ccc(Cl)c(Cl)c4)o3)CC2)C(C)(C)C)cc1 (centres unmarked) [ASM131],Ternary complex formation below 1 µM (4 h),[1]; Supplementary Table 2,No
same,Ternary complex formation below 1 µM (20 h),[1]; Supplementary Table 2,No
Cn1c(=O)c2c(nc(N3CCN(CC4CCN(c5cc6c(cc5F)C(=O)N(C5CCC(=O)NC5=O)C6=O)CC4)CC3)n2Cc2nnc(-c3ccc(Cl)c(Cl)c3)o2)n(C)c1=O (centres unmarked) [ASM71],EC50,[2]; [8],0.017 µM
same,Ternary complex formation below 1 µM (20 h),[1]; Supplementary Table 3,No
Cc1ncsc1-c1ccc(CNC(=O)C2CC(O)CN2C(=O)C(NC(=O)COCCOCCCCCCC(=O)N2CCCC(n3nc(-c4ccc(Oc5ccccc5)cc4)c4c(N)ncnc43)C2)C(C)(C)C)cc1 (centres unmarked) [ASM75],EC50,[2]; [7],> 10 µM
same,Ternary complex formation below 1 µM (20 h),[1]; Supplementary Table 1,No
Cc1ncsc1-c1ccc(CNC(=O)C2CC(O)CN2C(=O)C(NC(=O)CCCCCOCCOCCOCCCCCCN2CCCC(n3nc(-c4ccc(Oc5ccccc5)cc4)c4c(N)ncnc43)C2)C(C)(C)C)cc1 (centres unmarked) [ASM73],EC50,[2]; [7],> 10 µM
same,Ternary complex formation below 1 µM (20 h),[1]; Supplementary Table 1,No
Cn1c(=O)c2c(nc(N3CCN(C(=O)CCCCCCCCNc4cccc5c4C(=O)N(C4CCC(=O)NC4=O)C5=O)CC3)n2Cc2nnc(-c3ccc(Cl)c(Cl)c3)o2)n(C)c1=O (centres unmarked) [ASM133],Ternary complex formation below 1 µM (4 h),[1]; Supplementary Table 2,Yes
same,Ternary complex formation below 1 µM (20 h),[1]; Supplementary Table 2,Yes
